ChEMBL document CHEMBL1158404, “Antifungal activity of alkyl and heterocyclic aza-derivatives of gossypol as well as their complexes with NaClO4 against Fusarium oxysporum f. sp. lupini” (2009)

Columns and labels:
Format in all cases: functional
[1] = tested on: Fusarium oxysporum; assay: Antifungal activity against Fusarium oxysporum f. sp. lupini at 0.5 ug/ml after 48 hrs
[2] = tested on: Fusarium oxysporum; assay: Antifungal activity against Fusarium oxysporum f. sp. lupini at 0.5 ug/ml after 96 hrs
[3] = tested on: Fusarium oxysporum; assay: Antifungal activity against Fusarium oxysporum f. sp. lupini at 20 ug/ml after 192 hrs relative to control; conditions: read-out: GI
[4] = tested on: Fusarium oxysporum; assay: Antifungal activity against Fusarium oxysporum f. sp. lupini at 0.1 ug/ml after 144 hrs
[5] = tested on: Fusarium oxysporum; assay: Antifungal activity against Fusarium oxysporum f. sp. lupini at 0.5 ug/ml after 192 hrs
[6] = tested on: Fusarium oxysporum; assay: Antifungal activity against Fusarium oxysporum f. sp. lupini at 20 ug/ml after 96 hrs
[7] = tested on: Fusarium oxysporum; assay: Antifungal activity against Fusarium oxysporum f. sp. lupini at 0.1 ug/ml after 48 hrs
[8] = tested on: Fusarium oxysporum; assay: Antifungal activity against Fusarium oxysporum f. sp. lupini at 0.5 ug/ml after 192 hrs relative to control; conditions: read-out: GI
[9] = tested on: Fusarium oxysporum; assay: Antifungal activity against Fusarium oxysporum f. sp. lupini at 1 ug/ml after 144 hrs
[10] = tested on: Fusarium oxysporum; assay: Antifungal activity against Fusarium oxysporum f. sp. lupini at 0.5 ug/ml after 144 hrs
[11] = tested on: Fusarium oxysporum; assay: Antifungal activity against Fusarium oxysporum f. sp. lupini at 20 ug/ml after 192 hrs
[12] = tested on: Fusarium oxysporum; assay: Antifungal activity against Fusarium oxysporum f. sp. lupini at 0.1 ug/ml after 192 hrs
[13] = tested on: Fusarium oxysporum; assay: Antifungal activity against Fusarium oxysporum f. sp. lupini at 1 ug/ml after 192 hrs
[14] = tested on: Fusarium oxysporum; assay: Antifungal activity against Fusarium oxysporum f. sp. lupini at 1 ug/ml after 192 hrs relative to control; conditions: read-out: GI
[15] = tested on: Fusarium oxysporum; assay: Antifungal activity against Fusarium oxysporum f. sp. lupini at 1 ug/ml after 48 hrs
[16] = tested on: Fusarium oxysporum; assay: Antifungal activity against Fusarium oxysporum f. sp. lupini at 20 ug/ml after 48 hrs
[17] = tested on: Fusarium oxysporum; assay: Antifungal activity against Fusarium oxysporum f. sp. lupini at 0.1 ug/ml after 96 hrs
[18] = tested on: Fusarium oxysporum; assay: Antifungal activity against Fusarium oxysporum f. sp. lupini at 20 ug/ml after 144 hrs
[19] = tested on: Fusarium oxysporum; assay: Antifungal activity against Fusarium oxysporum f. sp. lupini at 0.1 ug/ml after 192 hrs relative to control; conditions: read-out: GI
[20] = tested on: Fusarium oxysporum; assay: Antifungal activity against Fusarium oxysporum f. sp. lupini at 1 ug/ml after 96 hrs

Cc1cc2c(C(C)C)c(O)c(O)c(C=O)c2c(O)c1-c1c(C)cc2c(C(C)C)c(O)c(O)c(C=O)c2c1O [GOSSYPOL]
Radial growth inhibition of fungi (Ā) (mm) [1]: 18.63 mm
Radial growth inhibition of fungi (Ā) (mm) [2]: 27.88 mm
inhibition of growth at 20 µg/mL [3]: 22.4%
Radial growth inhibition of fungi (Ā) (mm) [4]: 42.75 mm
Radial growth inhibition of fungi (Ā) (mm) [5]: 50.5 mm
Radial growth inhibition of fungi (Ā) (mm) [6]: 25.25 mm
Radial growth inhibition of fungi (Ā) (mm) [7]: 19.63 mm
inhibition of growth at 0.5 µg/mL [8]: 14.8%
Radial growth inhibition of fungi (Ā) (mm) [9]: 36.75 mm
Radial growth inhibition of fungi (Ā) (mm) [10]: 39.5 mm
Radial growth inhibition of fungi (Ā) (mm) [11]: 46 mm
Radial growth inhibition of fungi (Ā) (mm) [12]: 55 mm
Radial growth inhibition of fungi (Ā) (mm) [13]: 47.25 mm
inhibition of growth at 1 µg/mL [14]: 20.3%
Radial growth inhibition of fungi (Ā) (mm) [15]: 17.25 mm
Radial growth inhibition of fungi (Ā) (mm) [16]: 14.88 mm
Radial growth inhibition of fungi (Ā) (mm) [17]: 30.63 mm
Radial growth inhibition of fungi (Ā) (mm) [18]: 35 mm
inhibition of growth at 0.1 µg/mL [19]: 7.2%
Radial growth inhibition of fungi (Ā) (mm) [20]: 26.25 mm
